In patent publication US8193315B2 (Sanford-Burnham Medical Research Institute, priority 2001, dated 2012):
Entries after “also recorded” stand apart in the source; their conditions may differ. Like-named read-outs stand apart in the source and are kept apart here.

What was measured:
Format in all cases: cell-based
NR1/NR3B receptors = target: T1, NR1/NR3B receptors (Rattus norvegicus, UniProt P35439+Q8VHN2); assay: Glycine-evoked whole-oocyte currents of NR1/NR3B receptors, dual-electrode voltage clamp in Xenopus oocytes
T1 construct: Full-length cDNAs encoding NMDA receptor subunits were linearized and used as templates for synthesis of cRNA; expressed in transfected cells; host or cells: Xenopus laevis oocytes injected with cRNA
T1 sequence (Q8VHN2 25-1002, other chains not shown): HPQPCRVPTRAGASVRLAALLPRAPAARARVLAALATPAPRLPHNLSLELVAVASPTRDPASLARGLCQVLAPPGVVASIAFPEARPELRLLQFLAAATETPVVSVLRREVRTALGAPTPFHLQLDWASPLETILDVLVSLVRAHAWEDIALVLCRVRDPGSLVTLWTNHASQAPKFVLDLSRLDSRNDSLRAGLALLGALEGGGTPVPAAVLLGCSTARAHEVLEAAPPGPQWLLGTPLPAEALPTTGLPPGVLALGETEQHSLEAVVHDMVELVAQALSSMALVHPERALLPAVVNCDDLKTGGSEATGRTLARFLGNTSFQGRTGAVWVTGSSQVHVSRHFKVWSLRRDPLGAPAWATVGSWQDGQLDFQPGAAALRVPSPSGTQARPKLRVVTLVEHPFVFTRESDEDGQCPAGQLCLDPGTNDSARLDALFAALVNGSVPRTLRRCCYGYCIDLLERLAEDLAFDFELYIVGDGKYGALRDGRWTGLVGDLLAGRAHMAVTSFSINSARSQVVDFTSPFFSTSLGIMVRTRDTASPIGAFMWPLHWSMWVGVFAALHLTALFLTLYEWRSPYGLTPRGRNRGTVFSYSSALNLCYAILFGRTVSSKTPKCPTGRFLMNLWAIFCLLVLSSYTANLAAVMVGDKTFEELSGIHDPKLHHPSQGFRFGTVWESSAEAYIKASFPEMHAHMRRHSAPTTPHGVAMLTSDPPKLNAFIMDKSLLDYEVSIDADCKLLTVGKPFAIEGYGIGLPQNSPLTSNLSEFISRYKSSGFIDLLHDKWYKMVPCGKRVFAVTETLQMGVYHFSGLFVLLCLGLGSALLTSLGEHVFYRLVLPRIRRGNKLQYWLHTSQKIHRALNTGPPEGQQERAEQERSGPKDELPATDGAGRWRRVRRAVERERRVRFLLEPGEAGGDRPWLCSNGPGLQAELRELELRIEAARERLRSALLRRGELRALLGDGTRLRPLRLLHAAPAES
Source text: NR3B cRNA for oocyte expression was produced as follows. The full-length NR3B cDNA was constructed in the pCMV6-XL4 vector (OriGene Technologies, Inc., Rockville, Md.), which contains a T7 promoter upstream of the cDNA insert. […] The truncated cRNA could potentially encode a dominant negative form of NR3B. Therefore, a new vector was constructed to facilitate production of exclusively full-length NR3B cRNA. Construction of this vector proceeded as follows. NR1 cDNA was excised from the pGEM-HE/NR1 vector (a gift from S. F. Heinemann) by digestion with EcoRI and the two ends of the truncated pGEM-HE vector were re-ligated. The truncated pGEM-HE vector retained the 5′ and 3′ UTRs of the X. laevis β-globin gene for high level protein expression in frog oocytes. The SfoI-KpnI fragment of truncated pGEM-HE, which contains the T7 promoter, was replaced with the PvuII-KpnI fragment of pBluescript II KS, which contains the T3 promoter, to generate pJC32. The abbreviated multiple cloning site of pJC32 was then replaced with the multiple cloning site from pcDNA3.1(+) (Invitrogen, Carlsbad, Calif.) by ligating the 102 bp PmeI fragment of pcDNA3.1(+) into the 3 kb SmaI-EcoRV fragment of pJC32 to generate pJC34. […] The resulting vector, pJC39, contains three rare restriction sites downstream of the multiple cloning site to facilitate linearization prior to in vitro transcription using T3 RNA polymerase.
The full-length NR3B (B4 form) cDNA was then excised from pCMV6-XL4 by digestion with EcoRI and XbaI, and the 3.2 kb fragment was ligated into EcoRI/XbaI-digested pJC39. The resulting vector, pJC42, was linearized with PmeI, and in vitro transcription was performed using the mMessage mMachine T3 kit (Ambion, Inc., Austin, Tex.) according to the manufacturer's instructions.
Micropipettes were filled with 3 M KCl.

NR1/NR3A receptors = target: T2, NR1/NR3A receptors (Rattus norvegicus, UniProt P35439+Q9R1M7); assay: Glycine-evoked whole-oocyte currents of NR1/NR3A receptors, two-electrode voltage recordings in Xenopus oocytes
T2 construct: Full-length cDNAs encoding NMDA receptor subunits were linearized and used as templates for synthesis of cRNA; expressed in transfected cells; host or cells: Xenopus laevis oocytes injected with cRNA
T2 sequence (Q9R1M7 24-1115 isoform Q9R1M7-2 limits assumed, other chains not shown): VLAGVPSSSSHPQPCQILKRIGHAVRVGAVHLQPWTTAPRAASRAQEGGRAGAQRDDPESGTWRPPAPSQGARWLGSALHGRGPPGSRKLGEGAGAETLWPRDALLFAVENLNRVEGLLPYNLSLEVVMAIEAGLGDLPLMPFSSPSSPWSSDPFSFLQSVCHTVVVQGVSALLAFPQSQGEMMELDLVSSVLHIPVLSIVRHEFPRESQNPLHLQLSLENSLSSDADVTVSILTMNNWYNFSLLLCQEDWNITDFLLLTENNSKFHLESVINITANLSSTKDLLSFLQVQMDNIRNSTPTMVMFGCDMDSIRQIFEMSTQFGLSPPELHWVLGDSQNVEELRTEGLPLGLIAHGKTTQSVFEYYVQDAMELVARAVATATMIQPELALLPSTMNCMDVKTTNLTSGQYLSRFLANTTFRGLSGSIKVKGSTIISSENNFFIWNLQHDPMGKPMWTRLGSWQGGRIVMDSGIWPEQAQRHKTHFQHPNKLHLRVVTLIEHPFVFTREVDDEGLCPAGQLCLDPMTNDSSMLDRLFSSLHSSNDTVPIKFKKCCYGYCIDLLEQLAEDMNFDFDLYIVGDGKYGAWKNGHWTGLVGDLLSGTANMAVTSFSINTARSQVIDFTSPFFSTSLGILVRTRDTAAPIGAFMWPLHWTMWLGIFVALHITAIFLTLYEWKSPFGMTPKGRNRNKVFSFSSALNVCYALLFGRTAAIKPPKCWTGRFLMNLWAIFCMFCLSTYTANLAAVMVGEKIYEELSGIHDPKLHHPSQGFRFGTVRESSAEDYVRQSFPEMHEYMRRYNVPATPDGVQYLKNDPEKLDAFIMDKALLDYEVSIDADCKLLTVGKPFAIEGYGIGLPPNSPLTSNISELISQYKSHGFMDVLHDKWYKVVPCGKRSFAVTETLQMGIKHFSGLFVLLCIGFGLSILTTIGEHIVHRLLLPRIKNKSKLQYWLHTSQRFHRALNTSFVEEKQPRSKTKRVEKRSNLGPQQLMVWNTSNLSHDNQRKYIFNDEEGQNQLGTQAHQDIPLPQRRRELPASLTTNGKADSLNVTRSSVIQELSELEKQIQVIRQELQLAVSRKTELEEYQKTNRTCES

[1] = tested on: cultured cerebrocortical neurons
cerebrocortical neurons = assay: Single-channel recording from outside-out patches of cerebrocortical neurons

## NC1(C(=O)O)CC1 [ACPC, 1-aminocyclopropanecarboxylic acid]
NR1/NR3B receptors
  effect on glycine-evoked currents of NR1/NR3B receptors: inhibited

## C[C@]12N[C@H](Cc3ccccc31)c1ccccc12 [MK-801]
NR1/NR3B receptors
  sensitivity of NR1/NR3B receptors to open-channel blocker compared to NR1/NR2A receptors: drastically less sensitive
NR1/NR3A receptors
  sensitivity of NR1/NR3A receptors to open-channel blocker compared to NR1/NR2A receptors: drastically less sensitive

## N[C@H](CO)C(=O)O [D-serine]
NR1/NR3B receptors; Xenopus oocytes
  activation of NR1/NR3B receptors by the substance alone (without co-agonist): evokes small NR1/NR3B currents alone; also recorded: activated NR1/NR3B receptors in the absence of glycine; also recorded: evoked small currents alone
NR1/NR3B receptors; Xenopus oocytes, glycine 10 μM, NMDA or L-glutamate 100 μM unless otherwise indicated
  effect on glycine-evoked currents of NR1/NR3B receptors: dose-dependently inhibits currents in the presence of glycine; also recorded: inhibited the glycine response
NR1/NR3A receptors; Xenopus oocytes
  activation of NR1/NR3A receptors by the substance alone: did not independently manifest any agonist activity
  effect on glycine-evoked currents of NR1/NR3A receptors: even more potent antagonist
[1]
  effect on glycine-evoked bursting response of cultured neurons: inhibited
  glycine-responsive cells in which glycine-triggered bursting was inhibited: 5 of 22
Cerebrocortical neurons
  effect on channel activity (NPo) evoked by 2.5 μM glycine: decreased
  effect on glycine-activated single channels of cerebrocortical neurons: inhibited

## [Mg+2] [Mg^2+]
NR1/NR3B receptors
  sensitivity of NR1/NR3B receptors to open-channel blocker compared to NR1/NR2A receptors: drastically less sensitive
NR1/NR3A receptors
  sensitivity of NR1/NR3A receptors to open-channel blocker compared to NR1/NR2A receptors: drastically less sensitive
Cerebrocortical neurons
  effect on channel activity (NPo) evoked by 2.5 μM glycine: little effect
  effect on glycine-activated single channels of cerebrocortical neurons: little effect

## CN[C@H](CC(=O)O)C(=O)O [NMDA, N-methyl-D-aspartate]
NR1/NR3B receptors
  activation of NR1/NR3B receptors by the substance alone (without co-agonist): did not evoke glycine-independent responses; also recorded: did not evoke a glycine-independent response
  effect on glycine-evoked currents of NR1/NR3B receptors: little or no effect; also recorded: did not potentiate glycine-evoked currents
NR1/NR3A receptors
  effect on glycine-evoked currents of NR1/NR3A receptors: did not potentiate glycine-evoked currents

## NC1=N[C@H](O)[C@H]2[C@H]3O[C@]4(O)O[C@@H]([C@@H](O)[C@@]2(N1)[C@@H]4O)[C@]3(O)CO [tetrodotoxin]
[1]
  effect on glycine-evoked bursting response of cultured neurons: inhibited

## N[C@@H](CCC(=O)O)C(=O)O [L-glutamate]
NR1/NR3B receptors
  activation of NR1/NR3B receptors by the substance alone (without co-agonist): did not evoke glycine-independent responses; also recorded: did not evoke a glycine-independent response
  effect on glycine-evoked currents of NR1/NR3B receptors: little or no effect; also recorded: did not potentiate glycine-evoked currents
NR1/NR3A receptors
  effect on glycine-evoked currents of NR1/NR3A receptors: did not potentiate glycine-evoked currents

## N[C@H](CCCP(=O)(O)O)C(=O)O [AP5, D-(−)-2-amino-5-phosphonopentanoate]
NR1/NR3B receptors
  effect on glycine-evoked currents of NR1/NR3B receptors at 10 μM: little or no effect
NR1/NR3A receptors
  effect on glycine-evoked currents of NR1/NR3A receptors at 10 μM: little or no effect

## O=C(O)c1cc(=O)c2c(Cl)cc(Cl)cc2[nH]1 [5,7-DCKA, 5,7-dichlorokynurenate]
NR1/NR3B receptors
  effect on glycine-evoked currents of NR1/NR3B receptors: blocks glycine activated currents; also recorded: virtually abolished

## NCC(=O)O [glycine]
[1]
  recordings in which glycine triggered neuronal bursting: 22 of 26
